Test system: HIV-IIIb
Experiment: Test A: Antiviral Assays in MT4 Cells
Assay type: cell-based
Conditions: MT-4 cells infected with HIV-IIIb, 5 days incubation, CellTiter-Glo readout
Method: The antiviral properties of a compound disclosed herein may be determined using Test A described below.
Test A: Antiviral Assays in MT4 Cells
For the antiviral assay utilizing MT-4 cells, 0.4 μL of […] test concentration of 3-fold serially diluted compound in DMSO was added to 40 μL of cell growth medium (RPMI 1640, 10% FBS, 1% penicillin/Streptomycin, 1% L-Glutamine, 1% HEPES) in each well of 384-well assay plates (10 concentrations) in quadruplicate.
1 mL aliquots of 2×10e6 MT-4 cells are pre-infected for 1 and 3 hrs respectively, @ 37° C. with 25 μL (MT4) or of either cell growth medium (mock-infected) or a fresh 1:250 dilution of an HIV-IIIb concentrated ABI stock (0.004 m.o.i. for MT4 cells). Infected and uninfected cells are diluted in cell growth medium and 35 μL of 2000 (for MT4) cells is added to each well of the assay plates.
Assay plates were then incubated in a 37° C. incubator. After 5 days of incubation, 25 μl of 2× concentrated CellTiter-Glo™ Reagent (catalog # G7573, Promega Biosciences, Inc., Madison, Wis.) was added to each well of the assay plate. Cell lysis was carried out by incubating at room temperature for 2-3 min and then chemiluminescence was read using the Envision reader (PerkinElmer).

[1] = Human immunodeficiency virus 1, IIIB, MT4, 120 h, Table I
[2] = Human immunodeficiency virus 1, IIIB, MT4, 120 h, Table II

Structure (SMILES) | EC50 [2] [nM] | also measured
Cc1cc2ccc(C#CC(C)(O)c3ccncc3)cc2c(-c2ccc(Cl)cc2)c1[C@H](OC(C)(C)C)C(=O)O (stereo partly drawn) [Example 12, (2S)-2-tert-Butoxy-2-(1-(4-chlorophenyl)-7-(3-hydroxy-3-(pyridin-4-yl)but-1-ynyl)-3-methylnaphthalen-2-yl)acetic acid] |  | EC50 [1]: 32 nM
Cc1nc(C)c(C(C)(O)C#Cc2ccc3cc(C)c([C@H](OC(C)(C)C)C(=O)O)c(-c4ccc(Cl)cc4)c3c2)s1 (stereo partly drawn) [Example 13, (2S)-2-tert-Butoxy-2-(1-(4-chlorophenyl)-7-(3-(2,4-dimethylthiazol-5-yl)-3-hydroxybut-1-ynyl)-3-methylnaphthalen-2-yl)acetic acid] |  | EC50 [1]: 65 nM
Cc1ccc2c(-c3ccc4c5c(ccnc35)CCO4)c(C(OC(C)(C)CF)C(=O)O)c(C)cc2c1 (centres unmarked) [Example 65] | 12.1 | 
Cc1cc2c(C)c(-c3cnc(N)nc3)ccc2c(-c2ccc3c4c(ccnc24)CCO3)c1[C@H](OC(C)(C)C)C(=O)O [Example 74] |  | EC50 (Table II): 37800 nM
Cc1cc2ccc(-c3cccc(-c4ccc5c(cnn5C)c4)c3)cc2c(-c2ccc(Cl)cc2)c1[C@H](OC(C)(C)C)C(=O)O [Example 88] | 3490 | 
Cc1cc2ccccc2c(-c2ccc3c4c(ccnc24)CCO3)c1C(OC(C)(C)CCl)C(=O)O (centres unmarked) [Example 100] | 161 | 
Cc1cc2ccccc2c(-c2ccc3c4c(ccnc24)CCO3)c1C(OC(C)(C)CF)C(=O)O (centres unmarked) [Example 103] | 30.7 | 
Cc1cc2ccccc2c(-c2ccc3c4c(ccnc24)CCO3)c1C(OC(C)(CF)CF)C(=O)O (centres unmarked) [Example 106] | 40.7 | 
